Measured values taken from ChEMBL document CHEMBL3301472, “MMV Malaria Box HIV and cytotoxicity screening”.

How the values were obtained:
[1] = MMV: MTT Cytotoxicity Assay Day 7 pi of Assay #6 (compound washed out Day 1 pi), U87-CD4-CCR5 cells, % cell death @ 5mM compound; assay type: toxicity, cell-based; conditions: human, u87-cd4-ccr5, 5000 µM
[2] = MMV: MTT Cytotoxicity Assay Day 3 pi, U87-CD4-CXCR4 cells, % cell death @ 5mM compound; assay type: toxicity, cell-based; conditions: human, u87-cd4-cxcr4, 5000 µM
[3] = tested on: Human immunodeficiency virus 1; experiment: MMV: HIV CXCR4-tropic env NL4-3 pseudovirus assay produces luciferase signal in lieu of replicating viral particles Day 3 pi, U87-CD4-CXCR4, % inhibition at 5 mM compound; assay type: functional; parameters: dose or concentration left out as unconfirmed; conditions: Human immunodeficiency virus 1, NL4-3, U87.CD4.CXCR4, 72 h
[4] = MMV: MTT Cytotoxicity Assay Day 7 pi of Assay #11 (NO washout), U87-CD4-CXCR4 cells, % cell death @ 5mM compound; assay type: toxicity, cell-based; conditions: human, u87-cd4-cxcr4, 5000 µM
[5] = MMV: MTT Cytotoxicity Assay Day 7 pi of Assay #10 (NO washout), U87-CD4-CCR5 cells, % cell death @ 5mM compound; assay type: toxicity, cell-based; conditions: human, u87-cd4-ccr5, 5000 µM
[6] = MMV: MTT Cytotoxicity Assay Day 3 pi, U87-CD4-CCR5 cells, % cell death @ 5mM compound; assay type: toxicity, cell-based; conditions: human, u87-cd4-ccr5, 5000 µM
[7] = MMV: MTT Cytotoxicity Assay Day 7 pi of Assay #7 (compound washed out Day 1 pi), U87-CD4-CXCR4 cells, % cell death @ 5mM compound; assay type: toxicity, cell-based; conditions: human, u87-cd4-cxcr4, 5000 µM
[8] = tested on: Human immunodeficiency virus 1; experiment: MMV: HIV JRFL CCR5-tropic replication-competent virus, virus & compound washed out Day 1 pi, P24 ELISA Day 7 pi, U87-CD4-CCR5, % inhibition at 5 mM compound; assay type: functional; parameters: dose or concentration left out as unconfirmed; conditions: Human immunodeficiency virus 1, JR-FL

SMILES	% Cell Death [1]	% Cell Death [2]	inhibition [3] [%]	% Cell Death [4]	% Cell Death [5]	% Cell Death [6]	% Cell Death [7]	inhibition [8] [%]
OC(CNCC1CCCO1)Cn1c2ccc(Cl)cc2c2cc(Cl)ccc21 (stereo not drawn)	26	15	0	-7	-2	11	-28	
COc1ccc(-c2nc(N3CCN(C(=O)C4CCCCC4)CC3)c3c4c(sc3n2)CCCC4)cc1	-3	46		104	113	2	-26	5
Cc1cc(C)cc(Nc2cc(C)nc3nc(C(F)(F)F)nn23)c1	29	26	7	-5	-23	10	-6	
O=C(Nc1ccc(Br)cc1)Nc1cccc(Cl)c1	8	22	9	64	44	9	-4	
CCCCCC(=O)N1c2ccccc2N=C2CC(c3ccc(OC)c(OC)c3)CC(O)=C2C1c1ccc(C(F)(F)F)cc1 (stereo not drawn)	5	14	2	-20	16	11	-21	
CN(C)CCNc1cc(-c2ccccc2)nc2ccccc12	6	18	5	85	71	26	-12	
COc1ccc2nc(C)cc(Nc3cccc(O)c3)c2c1.Cl	10	39	7	76	43	16	0	
COc1cccc(NC(=O)[C@H](C(C)C)n2c(=O)[nH]c3ccccc3c2=O)c1	24	20	0	7	27	24	5	
COc1cccc(NC(=O)Cn2c(C)c(C#N)c3ccccc32)c1	29	47	8	-1	12	23	-5	
CCOc1cc2c(cc1OCC)C(c1cc(OC)c(O)cc1Cl)NCC2 (stereo not drawn)	7	1	10	20	25	31	-19	
FC(F)(F)c1cccc(Nc2nc(-c3ccccc3)nc3ncccc23)c1	0	-16	9	-17	19	1	15	
Cc1ccnc(NC(c2cccc(OCc3ccccc3)c2)c2ccc3cccnc3c2O)c1 (stereo not drawn)	49	-12	1	27	-16	19	37	
CC(NCc1ccccc1)c1cc(Cl)ccc1O (stereo not drawn)	-2	6	6	-3	26	1	-15	
Cn1c(C(=O)c2cccc3ccccc23)nc2ccccc21	-37	32	9	-77	2	-32	-12	
COc1ccc(C2NCCc3c2[nH]c2ccccc32)cc1CN1CCN(c2ccc(F)cc2)CC1.Cl (stereo not drawn)	24	35	3	-62	14	27	-8	
CCn1c(CN2CCN(Cc3ccccc3)CC2)nc2cc(NC(=O)c3cccs3)ccc21	12	21	1	-27	10	21	-27	
Cc1ccc2cc3c(N)c4c(C)ccc(C)c4nc3nc2c1	46	-14	5	31	18	-9	-5	

SMILES	% Cell Death [1]	% Cell Death [2]	inhibition [3] [%]	% Cell Death [4]	% Cell Death [5]	% Cell Death [6]	% Cell Death [7]	inhibition [8] [%]
c1ccc2c(NCCc3c[nH]c4ccccc34)c3ccccc3nc2c1	29	62		42	20	64	-4	5
CCN(CC)CCCNc1ccnc2cc3ccccc3cc12	51	35	5	85	60	41	55	
Cl.Oc1ccccc1CNCC12CC3CC(CC(C3)C1)C2	20	15	3	-2	37	-8	-11	
Cc1ccc(-c2nc3ccccc3o2)cc1NCc1cc(Cc2ccccc2)ccc1O	-7	15		52	13	27	-11	8
CC1CCN(Cc2ccc(NC(=O)c3cc4ccc5cccnc5c4[nH]3)cc2)CC1	17	23	-1	-7	3	9	-14	
CCOc1cc2c(cc1OCC)C(c1cc(C)c(O)c(C)c1)NCC2.Cl (stereo not drawn)	18	16	5	-11	-3	4	-10	
CCN(CC)c1cc(C)c2cc(NC(=O)c3cccc(OC)c3)ccc2n1	3	5	7	-2	39	-1	-25	
Cc1ccc(NC(=O)Nc2cccc(Cl)c2)cc1F	12	26	0	-5	8	-7	-22	
CSc1ccccc1C(=O)Nc1nc(-c2ccccn2)cs1	18	86	4	2	3	28	28	
CCCOCc1cc(CN2CCN(c3cccc(Cl)c3)CC2)c(O)c2ncccc12	-8	31		-57	15	24	-7	9
O=C(Cc1ccccc1)NC(c1ccc(Cl)cc1)c1c(O)ccc2ccccc12 (stereo not drawn)	18	23	3	-16	2	11	-8	
Cc1cc(Nc2ccc(Cl)cc2)n2nc(C(F)(F)F)nc2n1	46	12	2	-18	56	27	-20	
COc1ccc(CN2CCN(Cc3ccccc3)CC2)c(O)c1	-1	-16	-2	10	4	16	53	
COc1ccc(C(C)=O)cc1N1C(=O)C2C(C1=O)C1(c3ccccc3)C(=O)C2(c2ccccc2)C(c2ccc(C)cc2)=C1c1ccc(C)cc1 (stereo not drawn)	2	39	3	5	16	28	14	
CCCCCCc1cc2cc(-c3nc4ccccc4[nH]3)c(=Nc3ccccc3C)oc2cc1O	15	25		53	44	31	-2	4
Br.Cc1ccc(C)c(-c2csc(Nc3ccc(C)c(C)c3)n2)c1	5	21	-1	28	48	-10	39	
O=C(Nc1cccc(C2=NCCN2)c1)Nc1cccc(C2=NCCN2)c1 [IMIDOCARB]	-6	63		65	63	31	15	7
